Measured values as given in patent publication US10766896B2, “Imidazo[4,5-c] ring compounds containing guanidine substituted benzamide groups” (3M INNOVATIVE PROPERTIES COMPANY, priority 2017, dated 2020).
Counter-ions that a name gives are not always drawn.

System: Human peripheral blood mononuclear cells (PBMC)
Test: Cytokine Induction in Human Cells (PBMC; IFN-alpha by ELISA, IFN-gamma and TNF-alpha by multiplex bead assay)
Format: cell-based
Conditions: 21-24 hrs culture, lowest concentration inducing cytokine at least 2× greater than negative control; for MEC to Induce Cytokine IFN-alpha: ELISA; for MEC to Induce Cytokine IFN-gamma / MEC to Induce Cytokine TNF-alpha: multiplex bead assay
Protocol: Interferon-alpha (IFN-alpha), interferon-gamma (IFN-gamma) and tumor necrosis factor-alpha (TNF-alpha) cytokine levels (pg/mL) were measured using the procedure ‘Cytokine Induction of Human Cells’ described below. The only difference was that for Examples 2, 3, and 4 the diluted compounds were transferred to the PBMCs to achieve final compound concentrations of 100, 33.3, 11.1, 3.7, 1.23, and 0.41 micromolar. The positive control wells contained imiquimod serially diluted to concentrations of 100, 33.3, 11.1, 3.7, 1.23, and 0.41 micromolar. For Example 5, the diluted compound and positive control (imiquimod) were individually transferred to the PBMCs to achieve final concentrations of 30, 10, 3.3, 1.1, 0.37, 0.12, 0.04, and 0.01 micromolar. According to the procedure described below, IFN-alpha cytokine levels (pg/mL) were measured by using the ELISA assay (human IFN-α, pan specific, Mabtech, Cincinnati, Ohio). IFN-gamma and TNF-alpha levels (pg/mL) were measured by using the multiplex bead assay (magnetic beads, R & D Systems Minneapolis, Minn.) according to the manufacturer's instructions. […] Specifically, the minimum effective concentration of each compound (micromolar) was determined as the lowest concentration of the compound that induced a measured cytokine response at a level ([…]) that was at least 2× greater than that observed with the negative control wells.
Cytokine Induction in Human Cells
Whole blood can be obtained from healthy human donors and collected by venipuncture into vacutainer tubes or syringes containing EDTA. Human peripheral blood mononuclear cells (PBMC) are purified from the whole blood by density gradient centrifugation. Histopaque 1077 (15 mL, Sigma, St. Louis, Mo.) is transferred to 6×50 mL sterile polypropylene conical tubes. The Histopaque is overlayed with 15-25 mL of blood diluted 1:2 in Hank's Balanced Salts Solution (HBSS) (Gibco, Life Technology, Grand Island N.Y.). The tubes are then centrifuged at 1370 rpm for 30 minutes at 20° C., with no brake (400×g, GH 3.8A Rotor).
The interface (buffy coat) containing the PBMC is collected and placed in a new sterile 50 mL conical polypropylene centrifuge tube. The PBMC are mixed with an equal volume of HBSS about 20 mL from the interface and about 20 mL of HBSS), and then centrifuged at 1090 rpm, 10 min, 20° C., with brake (270×g, GH 3.8A Rotor). After completing centrifugation, the cells are resuspended in 2-3 mL ACK Red blood cell lysis buffer (ammonium chloride potassium solution, Gibco, Life Technology) and incubated for 2-5 minutes at 20° C. Next, HBSS (40 mL) is added to the cells, and the sample is centrifuged at 270×g for 10 min at 20° C. The supernatant is decanted, and the cell pellet is resuspended in 5 mL AIM V® Medium (Gibco, Life Technology). Cell aggregates and debris are removed by filtering the cell solution through a BD Falcon 70 micron nylon cell strainer (BD Biosciences, San Jose, Calif.).
The number of viable cells is determined by counting with a Miltenyi FACS instrument (Miltenyi Biotec Inc., San Diego, Calif.) or by using a hemacytometer. For determining cell viability with a hemacytometer, the cells are diluted 1/10 in 0.4% trypan blue and HBSS (specifically, 50 microliter of trypan blue+40 microliter of HBSS+10 microliter of cell solution are added to a microfuge tube and mixed). Ten microliters of the diluted cells are then applied to the hemacytometer, and the number of viable PBMC are determined by microscopy.
The PBMC sample is then resuspended in 96-well plates at a concentration of 8×10^5 cells/well in 0.1 mL of AIM-V medium. Each compound is solubilized in DMSO to create a 3 mM stock solution. The stock solution is then further diluted with AIM-V medium to prepare the serial dilutions. The diluted compound (100 microliters) is then transferred to the PBMCs to achieve final compound concentrations of 10, 1, 0.1, 0.01, 0.001, 0.0001 micromolar. The plates also have both positive and negative controls. […]

Compound	MEC to Induce Cytokine IFN-alpha	MEC to Induce Cytokine IFN-gamma	MEC to Induce Cytokine TNF-alpha
CCCCc1nc2c(N)nc3ccccc3c2n1CCCCNC(=O)c1ccc(CNC(=N)N)cc1 [Example 5, N-[4-(4-amino-2-butyl-imidazo[4,5-c]quinolin-1-yl)butyl]-4-(guanidinomethyl)benzamide dihydrochloride]	0.37 µM	1.1 µM	–
CCCCc1nc2c(N)nc3ccccc3c2n1CCOCCNC(=O)c1ccc(CNC(=N)N)cc1 [Example 2, N-[2-[2-(4-amino-2-butyl-imidazo[4,5-c]quinolin-1-yl)ethoxy]ethyl]-4-(guanidinomethyl)benzamide dihydrochloride]	1.2 µM	1.2 µM	3.7 µM
CCCCc1nc2c(N)nc3ccccc3c2n1CCCCNC(=O)c1ccc(NC(=N)N)cc1 [Example 4, N-[4-(4-amino-2-butyl-imidazo[4,5-c]quinolin-1-yl)butyl]-4-guanidinobenzamide dihydrochloride]	0.4 µM	3.7 µM	1.2 µM
CCCc1nc2c(N)nc3ccccc3c2n1CCCCNC(=O)c1ccc(CNC(=N)N)cc1 [Example 3, N-[4-(4-amino-2-propyl-imidazo[4,5-c]quinolin-1-yl)butyl]-4-(guanidinomethyl)benzamide dihydrochloride]	3.7 µM	3.7 µM	3.7 µM
